Tests used:
[1] = biological target: STIM1 and Orai1 in HEK293 cells (Homo sapiens, UniProt Q96D31); conditions: HEK293 cells coexpressing STIM1 and Orai1; cited from earlier work
JR251 or RBL cells = test: Fluorescence-based assay of store-operated calcium entry (JR251 or RBL cells); type: cell-based; conditions: in either JR251 or RBL cells, or both
Experimental: Fluorescence-based assays are used for screening the compounds described herein, such as compounds of Formulas (I) and (II) which modulate intracellular calcium. […]
B. Fluorescence-based Assay of Store-Operated Calcium Entry in RBL-2H3 Cells.
RBL-2H3 cells are obtained from ATCC and maintained in complete medium with 10% FBS at 37° C./6% CO2.
The day prior to performing the assay, RBL-2H3 cells are plated in 50 μL of complete medium in a 384 well plate. Cells are grown at 37° C./6% CO2 overnight and grow to 50-60% confluence by the next day. On the assay day, 1.5 μM Fluo-4-AM dye (Invitrogen) in complete medium is added and incubated for 1 hour at RT. Cells are washed twice in Ca^2+-free HBSS buffer and 35 μL Ca^2+-free HBSS buffer is added to each well. 10 μL of a test compound prepared in a Ca^2+-free HBSS solution at 4.5× of the desired concentration is added to a well and incubated for 5 minutes at RT. 10 μL of thapsigargin prepared in a Ca^2+-free HBSS solution at 5.5× of the desired concentration (5.5 uM) is added to each well and incubated for an additional 25 minutes. The initial baseline fluorescence signal is measured with a FLIPR^384 (Molecular Devices) plate reader. 5 μL of 12× calcium in HBSS (12 mM) is added and changes in cellular fluorescence are measured with the FLIPR^384 plate reader. In each well, the change in the fluorescent signal as a function of time due to calcium entry into the cell is determined by calculating the difference between the fluorescent signal measured 7 seconds after calcium addition and the initial baseline fluorescence signal at time zero (t=0). This parameter is designated Upslope. The IC50 value is calculated as the concentration at which 50% of the Upslope is inhibited. […]

[2] = system: Jurkat cells and colon cancer cells; conditions: cited from earlier work
[3] = system: Jurkat cells and colon cancer cells; conditions: cited from earlier work; remark: listed apart in the source

STIM1 and Orai1 in HEK293 cells, sequence (Q96D31 whole entry): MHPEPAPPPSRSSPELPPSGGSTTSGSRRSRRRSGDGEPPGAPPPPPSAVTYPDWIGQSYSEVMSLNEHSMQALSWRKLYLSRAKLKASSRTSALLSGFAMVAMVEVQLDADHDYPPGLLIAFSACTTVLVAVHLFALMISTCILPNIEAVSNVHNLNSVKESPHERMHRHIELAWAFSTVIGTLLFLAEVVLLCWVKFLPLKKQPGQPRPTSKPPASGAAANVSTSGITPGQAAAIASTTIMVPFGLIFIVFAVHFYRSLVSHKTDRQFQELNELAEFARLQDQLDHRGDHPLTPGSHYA

For `NCCOB(c1ccccc1)c1ccccc1` [2-aminoethoxydiphenylborate], the “block of store-dependent Ca2+ entry” value [1] is given as “completely blocked”.
For `Cc1cc(C(F)(F)F)n(-c2ccc(C(=O)Nc3ccccc3Cl)cc2N)n1` [3-amino-N-(2-chlorophenyl)-4-(3-methyl-5-(trifluoromethyl)-1H-pyrazol-1-yl)benzamide], the IC50 (JR251 or RBL cells) was under 10 µM.
With `Cc1cc(C(F)(F)F)nn1-c1ccc(C(=O)Nc2ccccc2Cl)cc1N` [3-amino-N-(2-chlorophenyl)-4-(5-methyl-3-(trifluoromethyl)-1H-pyrazol-1-yl)benzamide] the IC50 (JR251 or RBL cells) was under 10 µM.
`Cc1cc(C(F)(F)F)nn1-c1ccc(C(=O)Nc2ccc(Cl)cc2)cc1N` [3-amino-N-(4-chlorophenyl)-4-(5-methyl-3-(trifluoromethyl)-1H-pyrazol-1-yl)benzamide] gave an IC50 (JR251 or RBL cells) of under 10 µM.
For `Cc1cc(C(F)(F)F)n(-c2ccc(NC(=O)c3ccc(Cl)cc3)cc2[N+](=O)[O-])n1` [4-Chloro-N-(4-(3-methyl-5-(trifluoromethyl)-1H-pyrazol-1-yl)-3-nitrophenyl)benzamide], the IC50 (JR251 or RBL cells) was under 10 µM.
For `CCc1cc(CC)n(-c2ccc(NC(=O)c3ccc(Cl)cc3)cc2[N+](=O)[O-])n1` [4-chloro-N-(4-(3,5-diethyl-1H-pyrazol-1-yl)-3-nitrophenyl)benzamide], the IC50 (JR251 or RBL cells) was under 10 µM.
Compound `COc1ccc(C(=O)Nc2ccc(-n3nc(C)cc3C(F)(F)F)c([N+](=O)[O-])c2)cc1` [4-methoxy-N-(4-(3-methyl-5-(trifluoromethyl)-1H-pyrazol-1-yl)-3-nitrophenyl)benzamide] has an IC50 (JR251 or RBL cells) of under 10 µM.
`COc1ccc(C(=O)Nc2ccc(-n3nc(C(F)(F)F)cc3C)c([N+](=O)[O-])c2)cc1` [4-methoxy-N-(4-(5-methyl-3-(trifluoromethyl)-1H-pyrazol-1-yl)-3-nitrophenyl)benzamide] showed an IC50 (JR251 or RBL cells) of under 10 µM.
For `Cc1nnsc1C(=O)Nc1ccc(-n2nc(C(F)(F)F)cc2C(F)(F)F)cc1` [BTP-2], the inhibition of proliferation [2] is given as “inhibits” and the “inhibition of SOCE” value [3] is given as “inhibits”.
`COc1cc(C(=O)Nc2ccccc2Cl)ccc1-n1nc(C)cc1C(F)(F)F` [N-(2-chlorophenyl)-3-methoxy-4-(3-methyl-5-(trifluoromethyl)-1H-pyrazol-1-yl)benzamide] gave an IC50 (JR251 or RBL cells) of under 10 µM.
For `COc1cc(C(=O)Nc2ccccc2Cl)ccc1-n1nc(C(F)(F)F)cc1C` [N-(2-chlorophenyl)-3-methoxy-4-(5-methyl-3-(trifluoromethyl)-1H-pyrazol-1-yl)benzamide], the IC50 (JR251 or RBL cells) was under 10 µM.
`Cc1cc(C(F)(F)F)n(-c2ccc(C(=O)Nc3ccccc3Cl)cc2[N+](=O)[O-])n1` [N-(2-chlorophenyl)-4-(3-methyl-5-(trifluoromethyl)-1H-pyrazol-1-yl)-3-nitrobenzamide] gave an IC50 (JR251 or RBL cells) of under 10 µM.
In the case of `Cc1cc(C(F)(F)F)nn1-c1ccc(C(=O)Nc2ccccc2Cl)cc1[N+](=O)[O-]` [N-(2-chlorophenyl)-4-(5-methyl-3-(trifluoromethyl)-1H-pyrazol-1-yl)-3-nitrobenzamide], the IC50 (JR251 or RBL cells) is reported as under 10 µM.
With `COc1ccc(C(=O)Nc2ccc(-n3nc(C)cc3C(F)(F)F)c(N)c2)cc1` [N-(3-amino-4-(3-methyl-5-(trifluoromethyl)-1H-pyrazol-1-yl)phenyl)-4-methoxybenzamide] the IC50 (JR251 or RBL cells) was under 10 µM.
In the case of `COc1ccc(C(=O)Nc2ccc(-n3nc(C(F)(F)F)cc3C)c(N)c2)cc1` [N-(3-amino-4-(5-methyl-3-(trifluoromethyl)-1H-pyrazol-1-yl)phenyl)-4-methoxybenzamide], the IC50 (JR251 or RBL cells) is reported as under 10 µM.
With `COc1ccc(C(=O)Nc2ccc(-n3nc(-c4ccccc4)cc3C)c(N)c2)cc1` [N-(3-amino-4-(5-methyl-3-phenyl-1H-pyrazol-1-yl)phenyl)-4-methoxybenzamide] the IC50 (JR251 or RBL cells) was under 10 µM.
With `Cc1cc(-c2ccccc2)nn1-c1ccc(NC(=O)c2cccs2)cc1N` [N-(3-amino-4-(5-methyl-3-phenyl-1H-pyrazol-1-yl)phenyl)thiophene-2-carboxamide] the IC50 (JR251 or RBL cells) was under 10 µM.
Compound `Cc1cc(-c2ccccc2)nn1-c1ccc(NC(=O)c2cccs2)cc1[N+](=O)[O-]` [N-(4-(5-methyl-3-phenyl-1H-pyrazol-1-yl)-3-nitrophenyl)thiophene-2-carboxamide] has an IC50 (JR251 or RBL cells) of under 10 µM.
With `COc1cc(C(=O)Nc2ccc(Cl)cc2)ccc1-n1nc(C(F)(F)F)cc1C` [N-(4-chlorophenyl)-3-methoxy-4-(5-methyl-3-(trifluoromethyl)-1H-pyrazol-1-yl)benzamide] the IC50 (JR251 or RBL cells) was under 10 µM.
